Measured values from ChEMBL document CHEMBL1129097, “1-benzyl-3-thioaryl-2-carboxyindoles as potent non-peptide endothelin antagonists” (Bioorg Med Chem Lett, 1996).

Tests used:
[1] = target: T1, Endothelin receptor type B (Homo sapiens, UniProt P24530); experiment: Affinity for human endothelin B receptor expressed in CHO-K1 cells.; format: cell-based
T1 sequence (P24530 whole entry): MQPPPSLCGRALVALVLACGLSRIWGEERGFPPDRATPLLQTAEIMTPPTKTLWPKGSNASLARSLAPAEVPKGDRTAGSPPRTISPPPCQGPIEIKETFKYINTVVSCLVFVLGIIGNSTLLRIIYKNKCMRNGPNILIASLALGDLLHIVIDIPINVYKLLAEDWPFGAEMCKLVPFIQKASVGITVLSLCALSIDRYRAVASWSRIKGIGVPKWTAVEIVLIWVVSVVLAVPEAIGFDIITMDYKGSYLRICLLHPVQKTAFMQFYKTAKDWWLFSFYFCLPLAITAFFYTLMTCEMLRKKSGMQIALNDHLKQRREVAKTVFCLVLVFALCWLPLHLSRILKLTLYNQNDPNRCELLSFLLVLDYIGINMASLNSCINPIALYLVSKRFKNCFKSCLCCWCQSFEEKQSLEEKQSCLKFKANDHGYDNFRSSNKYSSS

Endothelin-1 receptor = target: T2, Endothelin-1 receptor (Homo sapiens, UniProt P25101); experiment: Affinity for human endothelin A receptor expressed in Ltk cells.; format: cell-based
T2 sequence (P25101 whole entry): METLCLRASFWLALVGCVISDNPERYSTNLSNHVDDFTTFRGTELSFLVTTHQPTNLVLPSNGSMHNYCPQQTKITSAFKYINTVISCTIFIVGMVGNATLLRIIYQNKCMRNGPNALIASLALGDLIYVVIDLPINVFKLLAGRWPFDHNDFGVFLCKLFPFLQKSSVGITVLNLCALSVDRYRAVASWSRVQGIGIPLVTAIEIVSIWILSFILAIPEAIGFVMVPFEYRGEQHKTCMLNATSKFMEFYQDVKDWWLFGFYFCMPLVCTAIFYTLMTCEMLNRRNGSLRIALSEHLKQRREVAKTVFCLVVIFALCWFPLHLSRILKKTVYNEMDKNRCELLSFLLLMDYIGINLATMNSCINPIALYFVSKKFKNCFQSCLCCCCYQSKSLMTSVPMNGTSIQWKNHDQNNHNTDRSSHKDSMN

[2] = target: T3, Endothelin receptor, ET-A/ET-B (Homo sapiens, UniProt P24530+P25101); experiment: In vitro inhibition of ET-1 stimulated vasoconstriction in rabbit femoral artery.; format: functional, tissue-based, Oryctolagus cuniculus; details: target entry is the homologue from another species
T3 sequence (P24530 whole entry): T1 sequence (P24530 whole entry)
T3 sequence (P25101 whole entry): T2 sequence (P25101 whole entry)

[3] = target: T1, Endothelin receptor type B; experiment: Inhibition of sarafotoxin-6c stimulated vasoconstriction in rabbit pulmonary artery.; format: functional, Oryctolagus cuniculus; details: target entry is the homologue from another species; read-out: pA2 (converted)

Row | Structure (SMILES) | IC50 [1] | IC50 (Endothelin-1 receptor) | pA2 [2] | Kb [3]
1 | COc1cccc(Sc2c(C(=O)O)n(Cc3ccccc3)c3cc(OC)c(OC)cc23)c1 | 870 nM | 160 nM |  | 
2 | COc1cccc(Sc2c(C(=O)O)n(Cc3ccc4c(c3)OCO4)c3cc(OCc4ccccc4)c(OC)cc23)c1 | 1600 nM | 20000 nM |  | 
3 | COc1cccc(Sc2c(C(=O)O)n(Cc3cc(OC)c4c(c3)OCO4)c3cc4c(cc23)OCO4)c1 | 29000 nM |  |  | 
4 | COc1cc2c(Sc3cc(OC)c(OC)c(OC)c3)c(C(=O)O)n(Cc3ccc4c(c3)OCO4)c2cc1OCc1ccccc1 | > 2500 nM | > 2500 nM |  | 
5 | COc1cccc(Sc2c(C(=O)O)n(Cc3ccccc3)c3ccccc23)c1 | 15000 nM |  |  | 
6 | COc1cc2c(Sc3ccc4c(c3)OCO4)c(C(=O)O)n(Cc3ccc4c(c3)OCO4)c2cc1OCc1ccccc1 | 490 nM | 620 nM |  | 
7 | COc1cccc(Sc2c(C(=O)O)oc3ccccc23)c1 | > 25000 nM |  |  | 
8 | COc1cccc(Sc2c(C(=O)O)n(Cc3ccc4c(c3)OCO4)c3ccccc23)c1 |  | 86 nM |  | 
9 | COc1cccc(Sc2c(C(=O)O)sc3ccccc23)c1 | > 25000 nM |  |  | 
10 | CC(C)Oc1c(C(=O)O)sc2ccc(OCc3ccccc3)cc12 | > 100000 nM | 8800 nM |  | 
11 | COc1ccc(Sc2c(C(=O)O)n(Cc3ccc4c(c3)OCO4)c3cc4c(cc23)OCO4)cc1OC |  | 41 nM | 6.3 | 631 nM
12 | COc1cccc(Sc2c(C(=O)O)n(Cc3ccc4c(c3)OCO4)c3cc4c(cc23)OCO4)c1 | 760 nM |  |  | 
13 | O=C(O)c1c(Sc2ccc3c(c2)OCO3)c2cc3c(cc2n1Cc1ccc2c(c1)OCO2)OCO3 | 420 nM | 100 nM |  | 
